Results taken from PubChem BioAssay AID248 (DTP/NCI, 2004).
“And” between values parts separate entries of the source, which are not always exact repeats. Equal entries are not always repeated. Toxic doses and inconclusive results are not listed. Rule as the data show it: active = T/C of 150% or more; inactive = T/C below 125%.

System: L1210 leukemia ip in BDF1 mice, survival T/C
Experiment: NCI In Vivo Anticancer Drug Screen. Data for tumor model L1210 Leukemia (intraperitoneal) in B6D2F1 (BDF1) mice
Conditions: endpoint: mean survival time, higher = longer survival
Procedure, shortened: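 Ratio derived from survival: compound-dosed mice over vehicle-dosed mice, all bearing a transplantable tumor.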

[1] = dose: 50.0 mg/kg/injection, schedule: Q01DX009 (ip), vehicle: saline
[2] = dose: 100.0 mg/kg/injection, schedule: Q01DX009 (ip), vehicle: saline
[3] = dose: 100.0 mg/kg/injection, schedule: Q04DX003 (ip), vehicle: saline
[4] = dose: 100.0 mg/kg/injection, schedule: Q01DX001 (ip), vehicle: carboxymethylcellulose (CMC)
[5] = dose: 200.0 mg/kg/injection, schedule: Q01DX001 (ip), vehicle: carboxymethylcellulose (CMC)
[6] = dose: 400.0 mg/kg/injection, schedule: Q01DX001 (ip), vehicle: carboxymethylcellulose (CMC)
[7] = dose: 100.0 mg/kg/injection, schedule: Q04DX003 (ip), vehicle: saline with Tween-80
[8] = dose: 200.0 mg/kg/injection, schedule: Q04DX003 (ip), vehicle: saline with Tween-80
[9] = dose: 400.0 mg/kg/injection, schedule: Q04DX003 (ip), vehicle: saline with Tween-80
[10] = dose: 200.0 mg/kg/injection, schedule: Q01DX009 (ip), vehicle: saline
[11] = dose: 200.0 mg/kg/injection, schedule: Q04DX003 (ip), vehicle: saline
[12] = dose: 400.0 mg/kg/injection, schedule: Q01DX009 (ip), vehicle: saline
[13] = dose: 25.0 mg/kg/injection, schedule: Q04DX002 (ip), vehicle: saline with Tween-80
[14] = dose: 50.0 mg/kg/injection, schedule: Q04DX002 (ip), vehicle: saline with Tween-80

Measured: T/C

c1ccc([As+](c2ccccc2)(c2ccccc2)c2ccccc2)cc1
inactive: dose: 1.1 mg/kg/injection, schedule: Q01DX Z (ip), vehicle: carboxymethylcellulose (CMC) 120 % of control | dose: 1.2 mg/kg/injection, schedule: Q04DX003 (ip), vehicle: carboxymethylcellulose (CMC) 119 % of control | dose: 1.7 mg/kg/injection, schedule: Q01DX Z (ip), vehicle: carboxymethylcellulose (CMC) 104 % of control and 119 % of control | dose: 2.5 mg/kg/injection, schedule: Q01DX Z (ip), vehicle: carboxymethylcellulose (CMC) 101 % of control | dose: 2.5 mg/kg/injection, schedule: Q01DX Z (ip), vehicle: methylcellulose (MC) 119 % of control | dose: 2.5 mg/kg/injection, schedule: Q04DX003 (ip), vehicle: carboxymethylcellulose (CMC) 117 % of control | dose: 3.76 mg/kg/injection, schedule: Q01DX Z (ip), vehicle: carboxymethylcellulose (CMC) 107 % of control | dose: 5.0 mg/kg/injection, schedule: Q01DX001 (ip), vehicle: carboxymethylcellulose (CMC) 115 % of control | dose: 5.0 mg/kg/injection, schedule: Q01DX001 (ip), vehicle: saline 106 % of control | dose: 5.0 mg/kg/injection, schedule: Q04DX003 (ip), vehicle: carboxymethylcellulose (CMC) 116 % of control | dose: 5.56 mg/kg/injection, schedule: Q01DX Z (ip), vehicle: carboxymethylcellulose (CMC) 102 % of control | dose: 10.0 mg/kg/injection, schedule: Q01DX001 (ip), vehicle: saline 106 % of control

CCN(CC)CCOc1cccc(Oc2ccccc2)c1
inactive: [1] 96 % of control | [2] 117 % of control | [3] 98 % of control

O=[N+]([O-])c1ccc2c(c1)/C(=N\O)c1cc(F)ccc1-2
inactive: [4] 103 % of control | [5] 105 % of control | [6] 98 % of control

CCCCc1c(C)nc(N)[nH]c1=O
inactive: dose: 100.0 mg/kg/injection, schedule: Q04DX002 (ip), vehicle: Klucel (hydroxypropylcellulose) (HPC) 104 % of control | dose: 200.0 mg/kg/injection, schedule: Q04DX002 (ip), vehicle: Klucel (hydroxypropylcellulose) (HPC) 100 % of control | dose: 400.0 mg/kg/injection, schedule: Q04DX002 (ip), vehicle: Klucel (hydroxypropylcellulose) (HPC) 100 % of control

N#CSC(C(=O)c1ccccc1)c1ccccc1 (stereo not drawn)
inactive: [7] 92 % of control | [8] 91 % of control | [9] 92 % of control

Cc1cc(C(=O)O)c2cccc(C(F)(F)F)c2n1
inactive: dose: 100.0 mg/kg/injection, schedule: Q01DX009 (ip), vehicle: saline with Tween-80 112 % of control | [7] 111 % of control | dose: 200.0 mg/kg/injection, schedule: Q01DX009 (ip), vehicle: saline with Tween-80 103 % of control | [8] 114 % of control | dose: 400.0 mg/kg/injection, schedule: Q01DX009 (ip), vehicle: saline with Tween-80 101 % of control | [9] 103 % of control

CC(=O)Nc1ccc(NC(=O)c2ccc(F)cc2)cc1
inactive: dose: 100.0 mg/kg/injection, schedule: Q01DX009 (ip), vehicle: gum acacia 91 % of control | dose: 200.0 mg/kg/injection, schedule: Q01DX009 (ip), vehicle: gum acacia 89 % of control | dose: 400.0 mg/kg/injection, schedule: Q01DX009 (ip), vehicle: gum acacia 102 % of control

CC(=O)OCC(CO)(CO)CO
inactive: [2] 98 % of control | [3] 97 % of control | [10] 106 % of control | [11] 105 % of control | [12] 101 % of control | dose: 400.0 mg/kg/injection, schedule: Q04DX003 (ip), vehicle: saline 92 % of control

Cc1ccc(S(=O)(=O)OCCOc2ccc(C(C)(C)CC(C)(C)C)cc2)cc1
inactive: dose: 100.0 mg/kg/injection, schedule: Q01DX009 (ip), vehicle: Klucel (hydroxypropylcellulose) (HPC) 100 % of control | dose: 200.0 mg/kg/injection, schedule: Q01DX009 (ip), vehicle: Klucel (hydroxypropylcellulose) (HPC) 101 % of control | dose: 400.0 mg/kg/injection, schedule: Q01DX009 (ip), vehicle: Klucel (hydroxypropylcellulose) (HPC) 100 % of control

Nc1ccc(C(=O)Nc2ccc(N(CCCl)CCCl)cc2)cc1
inactive: dose: 12.5 mg/kg/injection, schedule: Q01DX009 (ip), vehicle: saline 117 % of control | dose: 25.0 mg/kg/injection, schedule: Q01DX009 (ip), vehicle: saline 98 % of control and 114 % of control | [1] 120 % of control | dose: 50.0 mg/kg/injection, schedule: Q04DX003 (ip), vehicle: saline 115 % of control | [2] 114 % of control | [3] 118 % of control | [11] 97 % of control

CSc1ccnc2c1ncn2C1OC(CO)C(O)C1O (stereo not drawn)
inactive: [4] 98 % of control | [5] 104 % of control | [6] 96 % of control

CCOC(=O)C1(Br)CCN(S(=O)(=O)c2ccc(C)cc2)c2ccccc2C1=O (stereo not drawn)
inactive: [4] 108 % of control | [5] 103 % of control | [6] 100 % of control

CC(C)C(CN=C(N)N)c1cccc2ccccc12 (stereo not drawn)
inactive: dose: 12.5 mg/kg/injection, schedule: Q01DX009 (ip), vehicle: saline with Tween-80 100 % of control | dose: 25.0 mg/kg/injection, schedule: Q01DX009 (ip), vehicle: saline with Tween-80 103 % of control | [13] 100 % of control | dose: 50.0 mg/kg/injection, schedule: Q01DX009 (ip), vehicle: saline with Tween-80 91 % of control | [14] 100 % of control

CCCCSP(=O)(SCCCC)N1CCCCC1
inactive: [13] 108 % of control | [14] 89 % of control | dose: 100.0 mg/kg/injection, schedule: Q04DX002 (ip), vehicle: saline with Tween-80 101 % of control

O=S(=O)(/N=C(Cl)/C(Cl)=N/S(=O)(=O)c1ccccc1)c1ccccc1
inactive: dose: 100.0 mg/kg/injection, schedule: Q04DX003 (ip), vehicle: Klucel (hydroxypropylcellulose) (HPC) 95 % of control | dose: 200.0 mg/kg/injection, schedule: Q04DX003 (ip), vehicle: Klucel (hydroxypropylcellulose) (HPC) 100 % of control | dose: 400.0 mg/kg/injection, schedule: Q04DX003 (ip), vehicle: Klucel (hydroxypropylcellulose) (HPC) 95 % of control

CSc1nccc(Cl)n1
inactive: dose: 50.0 mg/kg/injection, schedule: Q01DX001 (ip), vehicle: carboxymethylcellulose (CMC) 105 % of control | [4] 102 % of control | [5] 96 % of control | [6] 91 % of control

Cn1c(=O)c2c(ncn2CCCCO)n(C)c1=O
inactive: [2] 94 % of control | [10] 95 % of control | [12] 92 % of control

CSc1ccc(NC(=O)Nc2cc(C)ccc2N=Nc2ccc(C)cc2)cc1
inactive: dose: 100.0 mg/kg/injection, schedule: Q01DX009 (ip), vehicle: other 89 % of control | dose: 200.0 mg/kg/injection, schedule: Q01DX009 (ip), vehicle: other 102 % of control | dose: 400.0 mg/kg/injection, schedule: Q01DX009 (ip), vehicle: other 96 % of control

CCCCCCCCCC[As](=O)(O)CCCCCCCCCC
inactive: dose: 50.0 mg/kg/injection, schedule: Q01DX001 (ip), vehicle: saline 107 % of control | dose: 100.0 mg/kg/injection, schedule: Q01DX001 (ip), vehicle: saline 103 % of control | dose: 200.0 mg/kg/injection, schedule: Q01DX001 (ip), vehicle: saline 103 % of control | dose: 400.0 mg/kg/injection, schedule: Q01DX001 (ip), vehicle: saline 115 % of control

CN(C)P1(=S)NCCCO1 (stereo not drawn)
inactive: dose: 87.5 mg/kg/injection, schedule: Q01DX009 (ip), vehicle: other 97 % of control | dose: 175.0 mg/kg/injection, schedule: Q01DX009 (ip), vehicle: other 100 % of control | dose: 350.0 mg/kg/injection, schedule: Q01DX009 (ip), vehicle: other 100 % of control
